What was measured:
Assay in all cases: relative viability (nuclei count vs DMSO), 5 days (fraction); higher = more cells survive
AGI-6780 = compound: O=C(Nc1cccc(C(F)(F)F)c1)Nc1cc(S(=O)(=O)NC2CC2)ccc1-c1ccsc1 [AGI-6780]
In short: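 MetaXpress counted nuclei in 4× images of lung cancer cell lines that had been fixed, permeabilised and Hoechst-stained in one step. Before that, cells in 1536-well plates were kept overnight at 37 °C, pinned with five √10-spaced library-drug doses on vehicle-anchored plates, and cultured 5 days without medium change. Viability takes treated-well nuclei over vehicle-well nuclei and uses the median across plates. Plates were accepted only at control CV below 25% and at least one doubling.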

AGI-6780 + Palbociclib = compound: O=C(Nc1cccc(C(F)(F)F)c1)Nc1cc(S(=O)(=O)NC2CC2)ccc1-c1ccsc1 [AGI-6780] + CC(=O)c1c(C)c2cnc(Nc3ccc(N4CCNCC4)cn3)nc2n(C2CCCC2)c1=O [Palbociclib] (partner 0.5 µM)
In short: (§1)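 Cells from lung cancer lines were seeded into 1536-well plates and, one day later, dosed by pin tool. Treatments were either a single drug or a fixed dose of an anchor drug with five library-drug doses (not always all listed) in √10 steps. After 5 days, nuclei were stained in a one-step fixation (final 0.05% Triton X-100, 1% formaldehyde, 1 ug/ml Hoechst) and counted on 4× images, and relative viability is the treated-to-vehicle nuclei ratio, as the median of duplicate plates.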

AGI-6780 + Foretinib = compound: O=C(Nc1cccc(C(F)(F)F)c1)Nc1cc(S(=O)(=O)NC2CC2)ccc1-c1ccsc1 [AGI-6780] + COc1cc2c(Oc3ccc(NC(=O)C4(C(=O)Nc5ccc(F)cc5)CC4)cc3F)ccnc2cc1OCCCN1CCOCC1 [Foretinib] (partner 0.25 µM)
In short: as §1

AGI-6780 + OSI-027 = compound: O=C(Nc1cccc(C(F)(F)F)c1)Nc1cc(S(=O)(=O)NC2CC2)ccc1-c1ccsc1 [AGI-6780] + COc1cccc2cc(-c3nc([C@H]4CC[C@H](C(=O)O)CC4)n4ncnc(N)c34)[nH]c12 [OSI-027] (partner 0.5 µM)
In short: as §1

Cell Line | relative viability (AGI-6780; 0.08 µM) | relative viability (AGI-6780; 0.253 µM) | relative viability (AGI-6780; 0.8 µM) | relative viability (AGI-6780; 2.53 µM) | relative viability (AGI-6780; 8 µM) | relative viability (AGI-6780 + Palbociclib; first compound 0.08 µM) | relative viability (AGI-6780 + Palbociclib; first compound 0.253 µM) | relative viability (AGI-6780 + Palbociclib; first compound 0.8 µM) | relative viability (AGI-6780 + Palbociclib; first compound 2.53 µM) | relative viability (AGI-6780 + Palbociclib; first compound 8 µM) | relative viability (AGI-6780 + Foretinib; first compound 0.08 µM) | relative viability (AGI-6780 + Foretinib; first compound 0.253 µM) | relative viability (AGI-6780 + Foretinib; first compound 0.8 µM) | relative viability (AGI-6780 + Foretinib; first compound 2.53 µM) | relative viability (AGI-6780 + Foretinib; first compound 8 µM) | relative viability (AGI-6780 + OSI-027; first compound 0.08 µM) | relative viability (AGI-6780 + OSI-027; first compound 0.253 µM) | relative viability (AGI-6780 + OSI-027; first compound 0.8 µM) | relative viability (AGI-6780 + OSI-027; first compound 2.53 µM) | relative viability (AGI-6780 + OSI-027; first compound 8 µM)
NCI-H1651 | 1.03 | 1.04 | 0.957 | 0.921 | 1.02 | 0.522 | 0.538 | 0.534 | 0.466 | 0.547 | 0.87 | 0.824 | 0.715 | 0.692 | 0.796 | 0.659 | 0.684 | 0.731 | 0.691 | 0.661
NCI-H1666 | 1 | 0.974 | 0.981 | 0.843 | 1.06 | 0.605 | 0.679 | 0.616 | 0.601 | 0.601 | 0.945 | 0.999 | 0.939 | 0.929 | 1.04 | 0.899 | 0.828 | 0.809 | 0.761 | 1.01
NCI-H1734 | 0.945 | 1.07 | 1 | 0.692 | 1.06 | 0.371 | 0.379 | 0.297 | 0.285 | 0.352 | 0.814 | 0.954 | 0.83 | 0.663 | 0.819 | 0.588 | 0.665 | 0.621 | 0.442 | 0.573
NCI-H1755 | 1.02 | 0.983 | 0.964 | 0.915 | 1 | 0.452 | 0.463 | 0.426 | 0.433 | 0.419 | 0.986 | 0.975 | 0.85 | 0.874 | 0.905 | 0.836 | 0.758 | 0.677 | 0.503 | 0.666
NCI-H1793 | 1.19 | 1.08 | 1.03 | 0.768 | 0.897 | 0.347 | 0.328 | 0.342 | 0.262 | 0.287 | 0.729 | 0.745 | 0.771 | 0.555 | 0.603 | 0.302 | 0.27 | 0.359 | 0.197 | 0.293
NCI-H1915 | 1.02 | 0.995 | 1.01 | 0.994 | 1.05 | 0.525 | 0.506 | 0.518 | 0.46 | 0.524 | 1.04 | 1.11 | 1.09 | 1.1 | 1.03 | 0.678 | 0.663 | 0.594 | 0.465 | 0.623
NCI-H1944 | 1.02 | 0.975 | 1.02 | – | 1.06 | 0.365 | 0.331 | 0.32 | – | 0.403 | 1.03 | 0.885 | 0.93 | – | 0.869 | 0.414 | 0.466 | 0.461 | – | 0.425
NCI-H1975 | 0.94 | 1.08 | 0.918 | 0.873 | 0.921 | 0.569 | 0.673 | 0.531 | 0.492 | 0.584 | 0.979 | 0.944 | 0.897 | – | 0.896 | 0.813 | 0.751 | 0.767 | – | 0.67
NCI-H1993 | 1.01 | 1.07 | 1.19 | 0.677 | 0.971 | 0.693 | 0.649 | 0.78 | – | 0.609 | 0.682 | 0.838 | 0.851 | 0.621 | 0.771 | 0.367 | 0.614 | 0.46 | 0.588 | 0.554
NCI-H2009 | 0.968 | 1.03 | 0.94 | 1.1 | 1.05 | 0.198 | 0.158 | 0.262 | 0.194 | 0.236 | 1.23 | 1.23 | 1.19 | 1.24 | 1.14 | 0.667 | 0.7 | 0.575 | 0.668 | 0.696
NCI-H2023 | 0.969 | 0.978 | 1.03 | 0.882 | 1.03 | 0.394 | 0.372 | 0.421 | 0.357 | 0.4 | 0.984 | 0.823 | 0.829 | 0.777 | 0.825 | 0.434 | 0.455 | 0.447 | 0.301 | 0.337
NCI-H2085 | 1.02 | 1 | 1.05 | 1.07 | 0.993 | 0.469 | 0.5 | 0.469 | 0.535 | 0.5 | 0.995 | 0.882 | 1.05 | 1.02 | 0.903 | 0.77 | 0.825 | 0.805 | 0.513 | 0.89
NCI-H2087 | 1.03 | 1.18 | 1.12 | 1.01 | 1.12 | 0.244 | 0.265 | 0.221 | 0.25 | 0.245 | 1.04 | 1.24 | 1.17 | 1.17 | 1.08 | 0.866 | 0.564 | 0.608 | 0.405 | 0.626
NCI-H2126 | 1.06 | 1.07 | 0.981 | 0.796 | 1.08 | 0.38 | 0.357 | 0.36 | 0.391 | 0.341 | 1.32 | 1.09 | 1.08 | 1.08 | 1.18 | 0.711 | 0.88 | 0.742 | 0.618 | 0.815
NCI-H2170 | 0.988 | 1 | 0.909 | – | 0.975 | 0.393 | 0.421 | 0.43 | – | 0.376 | 0.994 | 0.978 | 1.1 | 0.928 | 0.984 | 0.694 | 0.762 | 0.768 | 0.596 | 0.733
NCI-H2228 | 0.972 | 1.08 | 0.913 | 0.846 | 1.15 | 0.726 | 0.961 | 0.631 | 0.667 | 0.766 | 1 | 0.767 | 0.598 | 0.709 | 0.853 | 0.617 | 0.589 | 0.488 | 0.367 | 0.685
NCI-H2342 | 0.984 | 1.01 | 1.15 | 0.848 | 1.2 | 0.506 | 0.504 | 0.509 | 0.478 | 0.548 | 1.11 | 1.11 | 1.05 | 0.978 | 1.12 | 0.63 | 0.721 | 0.58 | 0.57 | 0.662
NCI-H2347 | 1.07 | 1.02 | 0.743 | 1.06 | 1.07 | 0.451 | 0.469 | 0.413 | 0.385 | 0.481 | 0.607 | 0.828 | 0.831 | 0.79 | 1.57 | 0.403 | 0.491 | 0.333 | 0.378 | 0.507
NCI-H2405 | 0.995 | 1 | 0.842 | 0.923 | 1.01 | – | 0.532 | 0.45 | 0.47 | 0.526 | 1.06 | 1.01 | 0.746 | 1.02 | 1 | 0.671 | 0.651 | 0.525 | 0.549 | 0.596
NCI-H3122 | 1 | 1.03 | 1.04 | 1.02 | 1.07 | 0.217 | 0.148 | 0.172 | 0.178 | 0.217 | 0.971 | 0.959 | 1.08 | 1.03 | 0.983 | 0.998 | 0.913 | 1.08 | 0.727 | 1.01
PC-3 [JPC-3] | 0.982 | 1.04 | 1.08 | 1.08 | 0.962 | – | 0.574 | 0.563 | 0.566 | 0.571 | 1.08 | 0.986 | 0.969 | 1.05 | 1.01 | 0.776 | 0.748 | 0.781 | 0.691 | 0.76
PC-14 | 1.02 | 1.01 | 1.05 | 1.02 | 1.04 | 0.533 | 0.538 | 0.568 | 0.553 | 0.546 | 0.902 | 1.1 | 1.02 | 0.941 | 0.979 | 0.833 | 0.822 | 0.814 | 0.678 | 0.922
RERF-LC-KJ | 1.05 | 1.06 | 0.977 | 0.798 | 0.951 | 1.06 | 1.09 | 1.07 | 0.93 | 1.01 | 0.871 | 0.904 | 0.88 | 0.597 | 0.909 | 0.579 | 0.719 | 0.614 | 0.465 | 0.454
SK-LU-1 | 1.05 | 1.04 | 0.777 | 0.945 | 1.19 | 0.422 | 0.411 | 0.284 | 0.409 | 0.39 | 0.873 | 0.859 | – | 0.737 | 0.831 | 0.348 | 0.406 | – | 0.312 | 0.359
SK-MES-1 | 1.04 | 1.03 | 0.99 | 0.958 | 0.99 | 0.31 | 0.346 | 0.27 | 0.285 | 0.294 | 0.896 | 1.01 | 0.773 | 0.709 | 0.833 | 0.635 | 0.662 | 0.561 | 0.448 | 0.509
SW 1573 | 1.03 | 1.02 | 1.04 | 0.739 | 0.957 | 0.399 | 0.332 | 0.479 | – | 0.37 | 0.881 | 1.01 | 0.93 | 0.836 | 0.903 | 0.685 | 0.656 | 0.801 | – | 0.562
UMC-11 | 0.95 | 0.955 | 1.2 | – | 1.13 | 0.34 | 0.324 | 0.334 | – | 0.336 | 1.03 | 1.03 | 1.23 | – | 1.19 | 0.488 | 0.452 | 0.473 | – | 0.509

Reference: the supplement of paper PMC10307832
